Row | SMILES | melting point
1 | C[C@H]1CN(c2ccc(F)c3ccoc23)CCN1.O=C(O)C(=O)O | 191 °C (dec.)
2 | CC1(C)CNCCN1c1cc(F)cc2ccoc12.O=C(O)/C=C/C(=O)O | 162 to 165 °C
3 | C[C@@H]1CN(c2ccc(F)c3ccoc23)CCN1.O=C(O)C(=O)O | 192 °C (dec.)
